Assay [1] deals with T1, N-terminal GST-tagged recombinant human Flt3, residues 564-end (Homo sapiens, UniProt P36888).
T1 construct: recombinant human Flt3, residues 564-end; GST (N); purchased Upstate USA Inc, 706 Forest Street, Charlottesville, Va
T1 sequence (P36888 564-993 limits assumed): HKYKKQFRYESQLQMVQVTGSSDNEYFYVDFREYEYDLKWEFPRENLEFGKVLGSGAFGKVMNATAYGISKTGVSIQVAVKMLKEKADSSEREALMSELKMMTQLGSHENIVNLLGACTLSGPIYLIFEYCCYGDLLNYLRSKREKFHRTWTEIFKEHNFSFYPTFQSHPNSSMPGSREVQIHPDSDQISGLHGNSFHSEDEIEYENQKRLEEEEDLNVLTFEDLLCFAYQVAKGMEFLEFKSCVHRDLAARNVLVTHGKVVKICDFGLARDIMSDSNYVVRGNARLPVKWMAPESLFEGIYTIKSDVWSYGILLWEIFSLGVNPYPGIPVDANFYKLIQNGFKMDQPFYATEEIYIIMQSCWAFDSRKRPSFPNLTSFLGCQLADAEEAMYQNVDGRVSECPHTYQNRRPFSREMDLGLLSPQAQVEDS
Description: Flt3 kinase inhibition assay (33P-ATP filter assay). Format: biochemical. The following applies: 40 minutes at room temperature. Put shortly:
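Serial compound dilutions incubated 40 min at room temperature with 5-10 mU Flt3 kinase, 50 μM peptide substrate and [γ-33P]ATP/10 mM magnesium acetate, pH 7.0. Phosphoric acid stop, filter capture and scintillation counting; activity compared with uninhibited reactions.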

The target in assay [2] is T2, N-terminal His-tagged human Src (Homo sapiens, UniProt P12931).
T2 construct: His (N); purchased Upstate USA Inc, 706 Forest Street, Charlottesville, Va
T2 sequence (P12931 whole entry): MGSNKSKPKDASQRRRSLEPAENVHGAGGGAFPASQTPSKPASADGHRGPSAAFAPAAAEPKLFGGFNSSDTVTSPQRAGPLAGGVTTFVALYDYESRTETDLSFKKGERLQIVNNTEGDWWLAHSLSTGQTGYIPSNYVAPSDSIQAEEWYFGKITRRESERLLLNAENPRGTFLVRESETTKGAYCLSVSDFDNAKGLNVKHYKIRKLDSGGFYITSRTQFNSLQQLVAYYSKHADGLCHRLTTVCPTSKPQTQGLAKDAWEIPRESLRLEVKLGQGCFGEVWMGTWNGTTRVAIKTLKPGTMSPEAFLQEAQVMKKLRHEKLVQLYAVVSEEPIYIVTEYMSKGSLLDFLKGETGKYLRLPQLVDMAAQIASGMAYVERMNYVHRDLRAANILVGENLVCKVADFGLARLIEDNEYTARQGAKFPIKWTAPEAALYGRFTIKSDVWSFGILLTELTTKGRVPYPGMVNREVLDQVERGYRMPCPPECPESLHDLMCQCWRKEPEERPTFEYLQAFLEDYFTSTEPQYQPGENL
Description: Src kinase inhibition assay (33P-ATP filter assay). Type of assay: biochemical.

Setting [3] is: group with IC50 greater than 100 nM.

Molecules are shown by their SMILES.

Usually IC50 stands for the concentration needed to halve the response being measured. On to `COc1ccc(F)c(-c2nc(Nc3cc(C)[nH]n3)cc(N3CCN(C)CC3)n2)c1` [Example 197, 2-(2-fluoro-5-methoxyphenyl)-N-(5-methyl-1H-pyrazol-3-yl)-6-(4-methylpiperazin-1-yl)pyrimidin-4-amine], for which the IC50 in assay [1] and in assay [2] (40 minutes at room temperature) was no more than 100 nM throughout.

As to `Cc1cc(Nc2cc(N3CCN(C)CC3)nc(-c3cc4ccccc4o3)n2)n[nH]1` [Compound 1, 2-(benzofuran-2-yl)-N-(5-methyl-1H-pyrazol-3-yl)-6-(4-methylpiperazin-1-yl)pyrimidin-4-amine], the IC50 in assay [1] and in assay [2] (40 minutes at room temperature) was no more than 100 nM in each case.

With `Cc1cc(Nc2cc(NC3CCOCC3)nc(-c3ccc(F)cc3)n2)n[nH]1` [Compound 19, 2-(4-fluorophenyl)-N^4-(5-methyl-1H-pyrazol-3-yl)-N^6-(tetrahydro-2H-pyran-4-yl)pyrimidine-4,6-diamine], the IC50 was no more than 100 nM in assay [1] and no more than 1000 nM in assay [2] (setting [3]).

Turning to `COc1ccc(-c2nc(Nc3cc(C)[nH]n3)cc(N3CCN(C)CC3)n2)cc1` [Compound 41, 2-(4-methoxyphenyl)-N-(5-methyl-1H-pyrazol-3-yl)-6-(4-methylpiperazin-1-yl)pyrimidin-4-amine], the half-inhibitory concentration (IC50) in assay [1] and in assay [2] (40 minutes at room temperature) was no more than 100 nM in each case.

`Cc1cc(Nc2cc(N3CCN(C)CC3)nc(-c3ccccc3C)n2)n[nH]1` [Compound 40, N-(5-methyl-1H-pyrazol-3-yl)-6-(4-methylpiperazin-1-yl)-2-o-tolylpyrimidin-4-amine]: the half-inhibitory concentration (IC50) in assay [1] and in assay [2] (40 minutes at room temperature) was no more than 100 nM throughout.

For `Cc1cccc(-c2nc(Nc3cc(C)[nH]n3)cc(N3CCN(C)CC3)n2)c1` [Compound 39, N-(5-methyl-1H-pyrazol-3-yl)-6-(4-methylpiperazin-1-yl)-2-m-tolylpyrimidin-4-amine], the IC50 in assay [1] and in assay [2] (40 minutes at room temperature) was no more than 100 nM each time.

For the compound `Cc1cc(Nc2cc(N3CCN(C)CC3)nc(-c3ccco3)n2)n[nH]1` [Compound 14, 2-(furan-2-yl)-N-(5-methyl-1H-pyrazol-3-yl)-6-(4-methylpiperazin-1-yl)-pyrimidin-4-amine], the 50% inhibitory concentration (IC50) was no more than 100 nM in assay [1] and no more than 1000 nM in assay [2] (setting [3]).

`CC(=O)N1CCN(c2cc(Nc3cc(C)[nH]n3)nc(-c3cc4ccccc4n3C)n2)CC1` [Compound 6, 1-(4-(6-(5-methyl-1H-pyrazol-3-ylamino)-2-(1-methyl-1H-indol-2-yl)pyrimidin-4-yl)-piperazin-1-yl)ethanone]: the IC50 in assay [1] and in assay [2] (40 minutes at room temperature) was no more than 100 nM each time.

Consider `Cc1cc(Nc2cc(N3CCN(C)CC3)nc(-c3cccc(OC(F)(F)F)c3)n2)n[nH]1` [Example 192, N-(5-methyl-1H-pyrazol-3-yl)-6-(4-methylpiperazin-1-yl)-2-(3-(trifluoromethoxy)phenyl)pyrimidin-4-amine], for which the IC50 in assay [1] and in assay [2] (40 minutes at room temperature) was no more than 100 nM throughout.

For the compound `Cc1cc(Nc2cc(NC3CCOCC3)nc(-c3cccc(-c4ccccc4)c3)n2)n[nH]1` [Example 159, 2-(biphenyl-3-yl)-N^4-(5-methyl-1H-pyrazol-3-yl)-N^6-(tetrahydro-2H-pyran-4-yl)pyrimidine-4,6-diamine], the values for the IC50 in assay [1] and in assay [2] (setting [3]) were no more than 100 nM and no more than 1000 nM, respectively.

Consider `Cc1cc(Nc2cc(N3CCN(C)CC3)nc(-c3cccc(F)c3F)n2)n[nH]1` [Example 200], for which the IC50 in assay [1] and in assay [2] (40 minutes at room temperature) was no more than 100 nM throughout.

As to `Cc1cc(Nc2cc(NCCN3CCN(C)CC3)nc(-c3ccccc3)n2)n[nH]1` [Compound 13, N^4-(5-methyl-1H-pyrazol-3-yl)-N^6-(2-(4-methylpiperazin-1-yl)ethyl)-2-phenylpyrimidine-4,6-diamine], the results for the half-inhibitory concentration (IC50) in assay [1] and in assay [2] (setting [3]) were no more than 100 nM and no more than 1000 nM, respectively.

`Cc1cc(Nc2cc(N3CCN(C)CC3)nc(-c3ccc(N(C)C)cc3)n2)n[nH]1` [Compound 85, 2-(4-(dimethylamino)prenyl)-N-(b-methyl-1H-pyrazol-3-yl)-6-(4-methylpiperazin-1-yl)pyrimidin-4-amine]: the IC50 in assay [1] and in assay [2] (40 minutes at room temperature) was no more than 100 nM each time.

For `Cc1cc(Nc2cc(N3CCN(C)CC3)nc(-c3ccccc3Cl)n2)n[nH]1` [Compound 37, 2-(2-chlorophenyl)-N-(5-methyl-1H-pyrazol-3-yl)-6-(4-methylpiperazin-1-yl)pyrimidin-4-amine], the half-maximal inhibitory concentration (IC50) in assay [1] and in assay [2] (40 minutes at room temperature) was no more than 100 nM each time.

`Cc1cc(Nc2cc(N(C)CCN(C)C)nc(-c3cccc(Cl)c3)n2)n[nH]1` [Compound 49, 2-(3-chlorophenyl)-N^4-(2-(dimethylamino)ethyl)-N^4-methyl-N^6-(5-methyl-1H-pyrazol-3-yl)pyrimidine-4,6-diamine]: the half-inhibitory concentration (IC50) in assay [1] and in assay [2] (40 minutes at room temperature) was no more than 100 nM throughout.

As to `Cc1cc(Nc2cc(NC3CCOCC3)nc(-c3cc4cc(NS(=O)(=O)C5CC5)ccc4o3)n2)n[nH]1` [Example 156, N-(2-(4-(5-methyl-1H-pyrazol-3-ylamino)-6-(tetrahydro-2H-pyran-4-ylamino)pyrimidin-2-yl)benzofuran-5-yl)cyclopropanesulfonamide], the half-maximal inhibitory concentration (IC50) in assay [1] and in assay [2] (40 minutes at room temperature) was no more than 100 nM each time.

On to `Cc1cc(Nc2cc(N3CCN(C)CC3)nc(-c3ccc(Cl)cc3)n2)n[nH]1` [Compound 35, 2-(4-chlorophenyl)-N-(5-methyl-1H-pyrazol-3-yl)-6-(4-methylpiperazin-1-yl)pyrimidin-4-amine], for which the IC50 in assay [1] and in assay [2] (40 minutes at room temperature) was no more than 100 nM throughout.

Take `Cc1cc(Nc2cc(N3CCN(C)CC3)nc(-c3ccc(C#N)cc3)n2)n[nH]1` [Example 160, 4-(4-(5-methyl-1H-pyrazol-3-ylamino)-6-(4-methylpiperazin-1-yl)pyrimidin-2-yl)benzonitrile]: the IC50 in assay [1] and in assay [2] (40 minutes at room temperature) was no more than 100 nM in each case.

With `Cc1cc(Nc2cc(N(C)CCN(C)C)nc(-c3cccc4ccoc34)n2)n[nH]1` [Example 205, 2-(benzofuran-7-yl)-N^4-(2-(dimethylamino)ethyl)-N^4-methyl-N^6-(5-methyl-1H-pyrazol-3-yl)pyrimidine-4,6-diamine], the IC50 in assay [1] was no more than 100 nM; in assay [2] (setting [3]), no more than 1000 nM.

Regarding `Cc1cc(Nc2cc(N3CCN(C)CC3)nc(-c3cccc(C)c3C)n2)n[nH]1` [Example 179, 2-(2,3-dimethylphenyl)-N-(5-methyl-1H-pyrazol-3-yl)-6-(4-methylpiperazin-1-yl)pyrimidin-4-amine], the IC50 is no more than 100 nM in assay [1] and no more than 1000 nM in assay [2] (setting [3]).

As to `Cc1ccc(C)c(-c2nc(Nc3cc(C)[nH]n3)cc(N3CCN(C)CC3)n2)c1` [Example 201, 2-(2,5-dimethylphenyl)-N-(5-methyl-1H-pyrazol-3-yl)-6-(4-methylpiperazin-1-yl)pyrimidin-4-amine], the values for the IC50 in assay [1] and in assay [2] (setting [3]) were no more than 100 nM and no more than 1000 nM, respectively.

Take `Cc1cc(Nc2cc(N3CCN(C)CC3)nc(-c3cccc(N(C)C)c3)n2)n[nH]1` [Compound 86, 2-(3-(dimethylamino)phenyl)-N-(5-methyl-1H-pyrazol-3-yl)-b-(4-methylpiperazin-1-yl)pyrimidin-4-amine]: the IC50 in assay [1] and in assay [2] (40 minutes at room temperature) was no more than 100 nM each time.

As for `Cc1cc(Nc2cc(N(C)CCN(C)C)nc(-c3cc4ccccc4n3C)n2)n[nH]1` [Compound 4, N^4-(2-(dimethylamino)ethyl)-N^4-methyl-2-(1-methyl-1H-indol-2-yl)-N^6-(5-methyl-1H-pyrazol-3-yl)pyrimidine-4,6-diamine], the IC50 in assay [1] and in assay [2] (40 minutes at room temperature) was no more than 100 nM throughout.

Consider `COCCN(C)c1cc(Nc2cc(C)[nH]n2)nc(-c2ccccc2)n1` [Example 171, N^4-(2-methoxyethyl)-N^4-methyl-N^6-(5-methyl-1H-pyrazol-3-yl)-2-phenyl pyrimidine-4,6-diamine], for which the IC50 is no more than 100 nM in assay [1] and no more than 1000 nM in assay [2] (setting [3]).

Consider `COc1ccc(-c2nc(Nc3cc(C)[nH]n3)cc(N(C)CCN(C)C)n2)cc1` [Compound 54, N^4-(2-(dimethylamino)ethyl)-2-(4-methoxyphenyl)-N^4-methyl-N^6-(5-methyl-1H-pyrazol-3-yl)pyrimidine-4,6-diamine], for which the IC50 in assay [1] and in assay [2] (40 minutes at room temperature) was no more than 100 nM each time.

Consider `COCCN(C)c1cc(Nc2cc(C)[nH]n2)nc(-c2cccc(Cl)c2)n1` [Compound 62, 2-(3-chlorophenyl)-N^4-(2-methoxyethyl)-N^4-methyl-N^6-(5-methyl-1H-pyrazol-3-yl)pyrimidine-4,6-diamine], for which the IC50 in assay [1] was no more than 100 nM; in assay [2] (setting [3]), no more than 1000 nM.

For the compound `Cc1cc(Nc2cc(N3CCN(C)CC3)nc(-c3ccc4c(c3)OC(F)(F)O4)n2)n[nH]1` [Example 178, 2-(2,2-difluorobezo[d][1,3]dioxol-5-yl)-N-(5-methyl-1H-pyrazol-3-yl)-6-(4-methylpiperazin-1-yl)pyrimidin-4-amine], the concentration for half-maximal inhibition (IC50) in assay [1] and in assay [2] (40 minutes at room temperature) was no more than 100 nM in each case.

Turning to `Cc1cc(Nc2cc(NC3CCOCC3)nc(-c3ccc4c(c3)OCO4)n2)n[nH]1` [Example 132, 2-(benzo[d][1,3]dioxol-5-yl)-N^4-(5-methyl-1H-pyrazol-3-yl)-N^6-(tetrahydro-2H-pyran-4-yl)pyrimidine-4,6-diamine], the IC50 in assay [1] and in assay [2] (40 minutes at room temperature) was no more than 100 nM in each case.

The record behind these values is patent US20090029992A1, “SUBSTITUTED PYRAZOLE COMPOUNDS” (priority 2007, published 2009).
